Measured values as given in ChEMBL document CHEMBL3351223, “Single Diastereomer of a Macrolactam Core Binds Specifically to Myeloid Cell Leukemia 1 (MCL1)” (ACS Med Chem Lett, 2014).
Activity calls are given as the source filed them. The calls are words filed in the database; no cut-off is given here.

Assays:
[1] = target: T1, Induced myeloid leukemia cell differentiation protein Mcl-1 (Homo sapiens, UniProt Q07820)
Description: Binding affinity to human MCL1 (173 to 329 aa) using TAMRA-labeled Noxa peptide preincubated for 30 mins by fluorescent polarization assay

[2] = target: T1, Induced myeloid leukemia cell differentiation protein Mcl-1; remark: listed apart in the source
Description: Binding affinity to human MCL1 (173 to 329 aa) at 250 uM by differential scanning calorimetry assay

[3] = target: T1, Induced myeloid leukemia cell differentiation protein Mcl-1; details: 25 uM
[4] = target: T1, Induced myeloid leukemia cell differentiation protein Mcl-1; details: 800 uM
[5] = target: T1, Induced myeloid leukemia cell differentiation protein Mcl-1; details: 100 uM
[6] = target: T1, Induced myeloid leukemia cell differentiation protein Mcl-1; remark: listed apart in the source
[7] = target: T1, Induced myeloid leukemia cell differentiation protein Mcl-1; remark: listed apart in the source

T1 sequence (Q07820 whole entry): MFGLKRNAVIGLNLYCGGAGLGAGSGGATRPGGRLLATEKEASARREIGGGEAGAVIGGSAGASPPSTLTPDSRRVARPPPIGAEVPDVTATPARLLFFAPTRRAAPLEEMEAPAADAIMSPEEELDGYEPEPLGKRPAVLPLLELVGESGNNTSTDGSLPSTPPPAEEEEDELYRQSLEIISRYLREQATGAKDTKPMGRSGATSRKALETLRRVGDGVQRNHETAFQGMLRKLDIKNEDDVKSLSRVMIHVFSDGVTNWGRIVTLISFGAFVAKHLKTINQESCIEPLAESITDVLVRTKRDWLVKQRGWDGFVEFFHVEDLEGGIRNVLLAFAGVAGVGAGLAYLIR

SMILES	IC50 [1]	ΔTm [2]	further results
C[C@@H]1CN([C@@H](C)C(=O)O)C(=O)c2cccc(NS(=O)(=O)c3ccccc3F)c2O[C@@H]1CN(C)C(=O)Nc1ccc(C(F)(F)F)cc1	21.3 µM	1.9 °C	–
C[C@@H]1CN([C@@H](C)C(=O)O)C(=O)c2cccc(NS(=O)(=O)c3ccccc3)c2O[C@@H]1CN(C)C(=O)Nc1ccc(C(F)(F)F)cc1	10 µM	2.8 °C	–
C[C@@H]1CN([C@@H](C)C(=O)O)C(=O)c2cccc(NS(=O)(=O)c3ccc(F)cc3)c2O[C@@H]1CN(C)C(=O)Nc1cccc(C(F)(F)F)c1	> 25 µM	0.2 °C	–
C[C@@H]1CN([C@@H](C)C(=O)O)C(=O)c2cccc(NS(=O)(=O)c3ccc(F)cc3)c2O[C@@H]1CN(C)C(=O)Nc1ccc2ccccc2c1	> 25 µM	0.8 °C	–
C[C@@H]1CN([C@@H](C)C(=O)O)C(=O)c2cccc(NS(=O)(=O)Cc3ccccc3)c2O[C@@H]1CN(C)C(=O)Nc1ccc(C(F)(F)F)cc1	> 50 µM	1.4 °C	–
C[C@@H]1CN([C@@H](C)CO)C(=O)c2cccc(NS(=O)(=O)c3ccc(F)cc3)c2O[C@@H]1CN(C)C(=O)Nc1ccc(C(F)(F)F)cc1	–	–	ΔTm [3]: 0.6 °C; Activity [4]: inactive; ΔTm [5]: 1.9 °C
C[C@@H]1CN([C@@H](C)C(=O)O)C(=O)c2cccc(NS(=O)(=O)c3ccc(F)cc3)c2O[C@@H]1CN(C)C(=O)Nc1ccccc1	> 50 µM	0.2 °C	–
C[C@@H]1CN([C@@H](C)C(=O)O)C(=O)c2cccc(NS(=O)(=O)CCc3ccccc3)c2O[C@@H]1CN(C)C(=O)Nc1ccc(C(F)(F)F)cc1	> 50 µM	0.4 °C	–
CN(C)C(=O)Nc1ccc(C(F)(F)F)cc1	–	–	Activity [6]: inactive; Activity [7]: inactive
C[C@@H]1CN([C@@H](C)CO)C(=O)c2cccc(NS(=O)(=O)c3ccccc3)c2O[C@@H]1CN(C)C(=O)Nc1ccc(C(F)(F)F)cc1	–	–	ΔTm [3]: 0.3 °C
COc1ccc(NC(=O)N(C)C[C@H]2Oc3c(NS(=O)(=O)c4ccc(F)cc4)cccc3C(=O)N([C@@H](C)C(=O)O)C[C@H]2C)cc1	> 50 µM	0.2 °C	–
C[C@@H]1CN([C@@H](C)C(=O)O)C(=O)c2cccc(NS(=O)(=O)c3ccc(F)cc3)c2O[C@@H]1CN(C)C(=O)Nc1cccc2ccccc12	> 50 µM	-0.1 °C	–
C[C@@H]1CN([C@@H](C)C(=O)O)C(=O)c2cccc(NS(=O)(=O)c3ccc(F)cc3)c2O[C@@H]1CN(C)C(=O)Nc1ccccc1C(F)(F)F	> 50 µM	0.2 °C	–
C[C@@H]1CN([C@@H](C)C(=O)O)C(=O)c2cccc(NS(=O)(=O)c3cccc(F)c3)c2O[C@@H]1CN(C)C(=O)Nc1ccc(C(F)(F)F)cc1	4.1 µM	3.4 °C	–
NS(=O)(=O)c1ccc(F)cc1	–	–	Activity [6]: inactive; Activity [7]: inactive
